From article PMC8704707 (Pharmaceuticals, 2021)
Converted amounts (≈) assume the structure as drawn. “And” between values parts separate entries of the source, which are not always exact repeats. Equal entries are not always repeated. Where two headings read alike, the source gives them in different places.

Key:
[1] = target: AChE from electric eel (EeAChE) (Electrophorus electricus, UniProt O42275); assay: biochemical; format: biochemical; conditions: for IC50: mean ± SD, n = three independent experiments, ATCh 40 µM, read-out: IC50 AChE
Sequence of AChE from electric eel (EeAChE) (O42275 24-633): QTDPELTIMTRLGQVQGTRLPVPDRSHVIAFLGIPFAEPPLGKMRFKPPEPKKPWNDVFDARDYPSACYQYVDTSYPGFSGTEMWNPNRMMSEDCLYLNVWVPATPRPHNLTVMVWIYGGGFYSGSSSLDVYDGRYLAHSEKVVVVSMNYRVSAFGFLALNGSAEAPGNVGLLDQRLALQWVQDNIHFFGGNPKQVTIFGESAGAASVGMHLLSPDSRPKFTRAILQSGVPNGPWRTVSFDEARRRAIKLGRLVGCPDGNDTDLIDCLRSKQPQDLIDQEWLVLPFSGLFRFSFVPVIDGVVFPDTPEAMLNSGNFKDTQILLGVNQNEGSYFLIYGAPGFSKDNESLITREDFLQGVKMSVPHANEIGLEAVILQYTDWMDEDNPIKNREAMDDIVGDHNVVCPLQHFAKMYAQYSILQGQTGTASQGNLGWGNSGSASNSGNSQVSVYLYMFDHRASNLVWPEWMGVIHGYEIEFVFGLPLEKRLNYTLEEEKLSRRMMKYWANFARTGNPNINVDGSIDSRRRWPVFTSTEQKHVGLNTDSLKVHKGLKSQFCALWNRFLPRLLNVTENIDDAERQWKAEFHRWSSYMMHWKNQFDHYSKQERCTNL

[2] = target: BuChE from equine serum (EqBuChE) (Equus caballus, UniProt P81908); assay: biochemical; conditions: for IC50: mean ± SD, n = three independent experiments, BTCh 40 µM, read-out: IC50 BuChE
Sequence of BuChE from equine serum (EqBuChE) (P81908 whole entry): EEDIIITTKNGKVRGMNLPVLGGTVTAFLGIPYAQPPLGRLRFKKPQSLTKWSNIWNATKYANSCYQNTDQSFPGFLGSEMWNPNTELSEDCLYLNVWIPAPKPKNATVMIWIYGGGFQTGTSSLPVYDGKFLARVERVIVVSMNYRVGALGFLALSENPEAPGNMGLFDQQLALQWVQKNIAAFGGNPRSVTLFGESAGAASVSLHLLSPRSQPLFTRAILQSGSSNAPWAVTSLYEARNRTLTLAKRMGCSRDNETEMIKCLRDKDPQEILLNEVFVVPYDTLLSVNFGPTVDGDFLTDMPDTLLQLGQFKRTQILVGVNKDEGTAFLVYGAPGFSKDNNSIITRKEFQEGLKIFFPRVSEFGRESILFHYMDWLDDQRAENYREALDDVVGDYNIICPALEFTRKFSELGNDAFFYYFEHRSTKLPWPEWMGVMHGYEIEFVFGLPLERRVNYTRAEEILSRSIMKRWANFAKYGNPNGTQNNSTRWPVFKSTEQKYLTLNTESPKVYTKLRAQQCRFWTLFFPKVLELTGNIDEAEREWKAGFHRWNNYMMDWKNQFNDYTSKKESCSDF

[3] = system: four Gram-positive and four Gram-negative bacterial strains; assay: Antibacterial microdilution broth method, whole panel; format: cell-based
[4] = system: eight human pathogenic fungi; assay: Antifungal microdilution broth method, whole panel; format: cell-based; conditions: not reported in Table 2, read-out: MIC, all fungal strains tested
HepG2 cells [5] = conditions: for IC50: read-out: IC50 cytotoxicity towards HepG2 cell line, CellTiter 96, 24 h incubation
Description: (§1) Cytotoxicity of the tested compounds was measured using the standard hepatic cell line HepG2. The used CellTiter 96® assay is based on the reduction of tetrazolium dye (MTS) in living cells to formazan, which is then determined colorimetrically.

in vitro [6] = conditions: human, HepG2 cells
Description: as §1

in vitro [7] = conditions: human, HepG2 cells; remark: listed apart in the source
HepG2 cells [8] = assay: LDH release assay (CytoTox 96), membrane integrity; conditions: read-out: EC50 LDH release assay; HepG2, 24 h incubation
[9] = system: Staphylococcus aureus ATCC 29213; assay: Antibacterial microdilution broth method (EUCAST); format: cell-based
[10] = system: methicillin-resistant Staphylococcus aureus ATCC 43300; assay: Antibacterial microdilution broth method (EUCAST); format: cell-based; conditions: ATCC 43300 / MRSA
[11] = system: Staphylococcus epidermidis ATCC 12228; assay: Antibacterial microdilution broth method (EUCAST); format: cell-based
[12] = system: Enterococcus faecalis ATCC 29212; assay: Antibacterial microdilution broth method (EUCAST); format: cell-based
[13] = system: Escherichia coli ATCC 25922; assay: Antibacterial microdilution broth method (EUCAST); format: cell-based
[14] = system: Acinetobacter baumannii ATCC 19606; assay: Antibacterial microdilution broth method (EUCAST); format: cell-based
[15] = system: Pseudomonas aeruginosa ATCC 27853; assay: Antibacterial microdilution broth method (EUCAST); format: cell-based
[16] = system: Klebsiella pneumoniae ATCC 10031
[17] = read-out: MIC, all bacterial strains tested

## [H]/N=C(\N)NN=Cc1cc(I)cc(I)c1O [Compound 1m, (E)-2-(2-Hydroxy-3,5-diiodobenzylidene)hydrazine-1-carboximidamide]
[1]
  IC50: 29 ± 2.49 µM
[2]
  IC50: < 20 µM and 3.57 µM
[3]; [17]
  MIC: ≥ 500 µM
[4]
  MIC: ≥ 500 µM
HepG2 cells [5]
  IC50: 56.5 µM
In vitro [6]
  IC50 at 24 h: > 29 µM
In vitro [7]
  EC50 at 24 h: > 20 µM
HepG2 cells [8]
  EC50: 21.3 µM

## [H]/N=C(\N)NN=Cc1cc(I)cc(I)c1 [Compound 2c, (E)-2-(3,5-Diiodobenzylidene)hydrazine-1-carboximidamide]
[9]; ATCC29213, 24 h, read-out: MIC SA 24 h
  MIC: 15.6 µM (≈ 6.47 µg/mL)
[9]; ATCC29213, 48 h, read-out: MIC SA 48 h
  MIC: 15.6 µM (≈ 6.47 µg/mL)
[10]; 24 h, read-out: MIC MRSA 24 h
  MIC: 15.6 µM (≈ 6.47 µg/mL)
[10]; 48 h, read-out: MIC MRSA 48 h
  MIC: 15.6 µM (≈ 6.47 µg/mL)
[11]; ATCC12228, 24 h, read-out: MIC SE 24 h
  MIC: 7.8 µM (≈ 3.23 µg/mL)
[11]; ATCC12228, 48 h, read-out: MIC SE 48 h
  MIC: 7.8 µM (≈ 3.23 µg/mL)
[12]; ATCC29212, 24 h, read-out: MIC EF 24 h
  MIC: 31.2 µM (≈ 12.9 µg/mL)
[12]; ATCC29212, 48 h, read-out: MIC EF 48 h
  MIC: 31.2 µM (≈ 12.9 µg/mL)
[13]; ATCC25922, 24 h, read-out: MIC EC 24 h
  MIC: 62.5 µM (≈ 25.9 µg/mL)
[13]; ATCC25922, 48 h, read-out: MIC EC 48 h
  MIC: 62.5 µM (≈ 25.9 µg/mL)
[14]; ATCC19606, 24 h, read-out: MIC ACI 24 h
  MIC: 250 µM (≈ 103 µg/mL)
[14]; ATCC19606, 48 h, read-out: MIC ACI 48 h
  MIC: 250 µM (≈ 103 µg/mL)
[15]; ATCC27853, 24 h, read-out: MIC PA 24 h
  MIC: 250 µM (≈ 103 µg/mL)
[15]; ATCC27853, 48 h, read-out: MIC PA 48 h
  MIC: 250 µM (≈ 103 µg/mL)
[1]
  Selectivity AChE/BuChE: 0.34
  IC50: 29 ± 1.19 µM
[2]
  IC50: 85.5 ± 1.46 µM
[3]; read-out: MIC against staphylococci
  MIC: 31.2 to 125 µM (≈ 12.9 to 51.7 µg/mL)
[4]
  MIC: ≥ 500 µM
[16]; 24 h incubation
  MIC KP 24 h: 62.5 µM (≈ 25.9 µg/mL)
[16]; 48 h incubation
  MIC KP 48 h: 62.5 µM (≈ 25.9 µg/mL)
HepG2 cells [5]
  IC50: 9.84 µM
In vitro [6]
  IC50 at 24 h: < 11 µM
In vitro [7]
  EC50 at 24 h: < 6 µM
HepG2 cells [8]
  EC50: 5.44 µM

## NC(N)=NN=C1C(=O)Nc2ccccc21 [Compound 1p, 2-(2-Oxoindolin-3-ylidene)hydrazine-1-carboximidamide]
[1]
  Selectivity AChE/BuChE: 1.03
  Type of inhibition of AChE: mixed inhibition
  IC50: 17.9 ± 0.9 µM
[2]
  Type of inhibition of BuChE: mixed inhibition
  IC50: < 20 µM and 17.5 µM
[3]; [17]
  MIC: ≥ 500 µM
[4]
  MIC: ≥ 500 µM
HepG2 cells [5]; range of tested concentrations up to 500 µM
  Cytotoxicity in HepG2 in words: no significant cytotoxicity
In vitro [6]
  IC50 at 24 h: > 500 µM
In vitro [7]
  EC50 at 24 h: > 100 µM
HepG2 cells [8]
  EC50: 130 µM
